Test results taken from PubChem BioAssay (NCI).
Several values for one entry are separate records, joined by “and”; a condition that tells them apart may be missing. Identical values can stand only once.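 Compound exposure: 48 hours, 5 concentrations, 96-well plates. GI50 marks 50% less growth. TGI: total growth inhibition.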

Columns and labels:
Assay in all cases: growth of human tumour cells (NCI), 48 h
OVCAR-5 ovarian = test system: OVCAR-5 ovarian
LOX IMVI melanoma = test system: LOX IMVI melanoma
NCI/ADR-RES ovarian = test system: NCI/ADR-RES ovarian
A498 renal = test system: A498 renal
UACC-257 melanoma = test system: UACC-257 melanoma
A549 NSCLC = test system: A549 NSCLC
MOLT-4 leukemia = test system: MOLT-4 leukemia
HOP-62 NSCLC = test system: HOP-62 NSCLC
SK-MEL-2 melanoma = test system: SK-MEL-2 melanoma
COLO 205 colon = test system: COLO 205 colon

SMILES	GI50 (OVCAR-5 ovarian)	TGI (OVCAR-5 ovarian)	GI50 (LOX IMVI melanoma)	TGI (LOX IMVI melanoma)	GI50 (NCI/ADR-RES ovarian)	TGI (NCI/ADR-RES ovarian)	GI50 (A498 renal)	TGI (A498 renal)	GI50 (UACC-257 melanoma)	TGI (UACC-257 melanoma)	GI50 (A549 NSCLC)	TGI (A549 NSCLC)	GI50 (MOLT-4 leukemia)	TGI (MOLT-4 leukemia)	GI50 (HOP-62 NSCLC)	TGI (HOP-62 NSCLC)	GI50 (SK-MEL-2 melanoma)	TGI (SK-MEL-2 melanoma)	TGI (COLO 205 colon)	GI50 (COLO 205 colon)
COc1cc2nc(-c3ccc(-n4cncc4-c4ccc(N)cc4)cc3)sc2c(OC)c1OC	34.3 µM	> 100 µM	3.65 µM	> 100 µM	1.61 µM	6.43 µM	2.13 µM	> 100 µM	6.4 µM	> 100 µM	3.14 µM	32.5 µM	–	–	–	–	–	–	–	–
COc1cc(/C=C2\CC3C4CC=C5C[C@@H](N6CCCC6)CC[C@]5(C)C4CC[C@]3(C)[C@H]2OC(C)=O)ccc1OCCN1CCCCC1 (stereo not given in full)	1.46 µM	2.85 µM	1.03 µM	2.57 µM	1.74 µM	3.2 µM	1.76 µM	3.41 µM	1.93 µM	3.91 µM	–	–	0.036 µM	0.638 µM	1.49 µM	2.87 µM	1.87 µM	3.36 µM	–	–
COc1cc(OC)c(OC)cc1/C=C1\C=Cc2ccccc21	–	> 100 µM	–	33.4 µM	–	> 100 µM	–	–	–	37.7 µM	–	> 100 µM	–	44.4 µM	–	37.5 µM	–	–	> 100 µM	–
CCOC(=O)C1=C(NC(C)(C)C)OCC1=O	–	> 100 µM	–	> 100 µM	–	–	–	–	–	> 100 µM	–	> 100 µM	–	> 100 µM	–	> 100 µM	–	> 100 µM	> 100 µM	–
Cc1cccc2c1Oc1cc(Cl)ccc1C2NC(=O)CN(C)C (stereo not given)	–	> 100 µM	–	> 100 µM	–	–	–	–	–	89.5 µM	–	> 100 µM	–	> 100 µM	–	> 100 µM	–	–	> 100 µM	–
Cc1c(C2Cc3ccccc3N2C(=O)/C=C\C(=O)O)c2ccccc2n1C (stereo not given)	–	> 100 µM	–	32.6 µM	–	–	–	66.3 µM	–	36.3 µM	–	> 100 µM	–	93.3 µM	–	57.1 µM	–	32 µM	32.1 µM	–
CC[C@@H](C)[C@H]([C@H](CC(=O)N1CCC[C@@H]1[C@@H](OC)[C@H](C)C(=O)N[C@H](Cc1ccccc1)c1nccs1)OC)N(C)C(=O)[C@H](NC(=O)[C@@H](C(C)C)N(C)C)C(C)C	< 0.0152 µM	–	0.000425 µM	–	0.000317 µM	< 0.215 µM	–	–	0.000425 µM and < 0.0589 µM	–	0.000425 µM	–	–	> 28.4 µM	–	–	< 0.0229 µM	–	0.000302 µM	–
CN1CCN(Cc2ccc(NC(=O)c3[nH]ncc3Nc3ncnc4sccc34)cc2)CC1	0.508 µM	> 100 µM	0.213 µM	1.07 µM	1.07 µM	> 100 µM	0.0172 µM	1.12 µM	2.12 µM	> 100 µM	0.263 µM	> 100 µM	0.207 µM	0.853 µM	0.437 µM	> 100 µM	0.368 µM	2.26 µM	–	–
Oc1ccc(/C=N/Nc2nc3ccccc3s2)c(O)c1	2.59 µM	21 µM	3.27 µM	28.8 µM	1.22 µM	> 100 µM	4.16 µM	36.8 µM	2.79 µM	14.2 µM	2.54 µM	51.9 µM	2.24 µM	88.1 µM	3.43 µM	> 100 µM	–	–	21.3 µM	3.11 µM
